Results taken from patent US20060229299A1, “5ht2c Receptor antagonists in the treatment of schizophrenia” (priority 2003, published 2006).
Where two headings read alike, the source gives them in different places.

How the values were obtained:
[1] = rhesus monkeys; cited from earlier work
[2] = system: 5HT2A/2C mediated elevations of prolactin levels; details: known from literature; cited from earlier work
[3] = target: D1 dopamine receptor (Homo sapiens, UniProt P21728); details: cited from earlier work
[4] = system: H1/D2; test: H1/D2 receptor affinity ratio; format: binding, human; details: Table 2; affinity ratio from data of Table 1
[5] = target: 5-HT6 receptor (Rattus norvegicus, UniProt P31388); details: cited from earlier work
[6] = target: H1 histamine receptor (Homo sapiens, UniProt P35367); details: cited from earlier work
[7] = system: 5-HT2C/5-HT2A; test: 5-HT2C/5-HT2A receptor affinity ratio; format: binding, human; details: Table 2; affinity ratio from data of Table 1
[8] = target: 5-HT3 receptor (Homo sapiens, UniProt P46098); details: cited from earlier work
[9] = target: D3 dopamine receptor (Homo sapiens, UniProt P35462); details: cited from earlier work
[10] = target: 5-HT7 receptor (Rattus norvegicus, UniProt P32305); details: cited from earlier work
[11] = target: D2-L (long form of D2 receptor) (Homo sapiens, UniProt P14416); details: cited from earlier work
[12] = target: D2-S (short form of D2 receptor) (Homo sapiens, UniProt P14416); details: cited from earlier work
[13] = system: 5-HT2C/D2; test: 5-HT2C/D2 receptor affinity ratio; format: binding, human; details: Table 2; affinity ratio from data of Table 1
[14] = target: α2-adrenoceptor; details: human; cited from earlier work
[15] = system: 5-HT2C receptor relative to 5-HT2A and D2 receptors; test: Relative 5-HT2C affinity (formula I, sum of 5-HT2C/5-HT2A and 5-HT2C/D2 affinity ratios)
[16] = target: sigma, σ receptor; details: human; cited from earlier work
[17] = target: mACh, muscarinic acetylcholine receptor; details: human; cited from earlier work
[18] = target: α1-adrenoceptor; details: human; cited from earlier work
[19] = system: 5-HT2A/D2; test: 5-HT2A/D2 receptor affinity ratio; format: binding, human; details: Table 2; affinity ratio from data of Table 1
[20] = target: 5-HT1A receptor (Homo sapiens, UniProt P08908); details: cited from earlier work
[21] = target: α2-adrenoceptor; details: rat; cited from earlier work
[22] = target: T1, 5-HT1A receptor (Rattus norvegicus, UniProt P19327); details: cited from earlier work
T1 sequence (P19327 1-422): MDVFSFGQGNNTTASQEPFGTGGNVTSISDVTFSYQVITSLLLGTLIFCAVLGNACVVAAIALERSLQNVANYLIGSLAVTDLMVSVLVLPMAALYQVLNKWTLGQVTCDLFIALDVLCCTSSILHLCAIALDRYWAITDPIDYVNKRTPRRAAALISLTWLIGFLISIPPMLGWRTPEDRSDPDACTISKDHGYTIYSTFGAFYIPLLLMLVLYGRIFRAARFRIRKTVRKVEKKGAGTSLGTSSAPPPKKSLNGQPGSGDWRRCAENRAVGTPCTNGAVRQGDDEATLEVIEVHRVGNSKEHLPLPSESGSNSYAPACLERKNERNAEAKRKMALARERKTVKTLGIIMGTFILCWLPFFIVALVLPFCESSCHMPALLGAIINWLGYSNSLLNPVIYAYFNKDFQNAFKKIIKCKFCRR

[23] = target: T2, 5-HT2C receptor (Homo sapiens, UniProt P28335); details: cited from earlier work
T2 sequence (P28335 33-458): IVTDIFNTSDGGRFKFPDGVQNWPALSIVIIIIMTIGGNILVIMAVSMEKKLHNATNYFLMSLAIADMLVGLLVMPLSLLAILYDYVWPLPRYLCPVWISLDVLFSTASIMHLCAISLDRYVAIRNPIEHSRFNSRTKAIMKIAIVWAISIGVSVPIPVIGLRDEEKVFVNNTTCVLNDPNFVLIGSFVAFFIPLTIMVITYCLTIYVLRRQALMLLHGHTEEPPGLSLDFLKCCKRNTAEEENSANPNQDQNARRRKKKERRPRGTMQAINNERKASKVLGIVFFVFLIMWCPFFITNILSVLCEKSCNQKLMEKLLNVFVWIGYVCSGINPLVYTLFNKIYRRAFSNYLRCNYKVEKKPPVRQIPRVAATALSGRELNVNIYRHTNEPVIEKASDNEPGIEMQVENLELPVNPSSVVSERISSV

[24] = target: sigma, σ receptor; details: rat; cited from earlier work
[25] = target: mACh, muscarinic acetylcholine receptor; details: rat; cited from earlier work
[26] = target: α1-adrenoceptor; details: rat; cited from earlier work
[27] = target: 5-HT2A receptor (Homo sapiens, UniProt P28223); details: Table 3; expressed as pKi or pKd values; known affinities; cited from earlier work
[28] = target: D2 receptor (Homo sapiens, UniProt P14416); details: Table 3; expressed as pKi or pKd values; known affinities; cited from earlier work
[29] = target: T2, 5-HT2C receptor; details: active metabolite in man; U.S. Pat. No. 6,093,747; cited from earlier work
[30] = target: 5-HT2C receptor (Rattus norvegicus, UniProt P08909); details: cited from earlier work
[31] = target: T3, D4 dopamine receptor (Rattus norvegicus, UniProt P30729); details: cited from earlier work
T3 sequence (P30729 1-387): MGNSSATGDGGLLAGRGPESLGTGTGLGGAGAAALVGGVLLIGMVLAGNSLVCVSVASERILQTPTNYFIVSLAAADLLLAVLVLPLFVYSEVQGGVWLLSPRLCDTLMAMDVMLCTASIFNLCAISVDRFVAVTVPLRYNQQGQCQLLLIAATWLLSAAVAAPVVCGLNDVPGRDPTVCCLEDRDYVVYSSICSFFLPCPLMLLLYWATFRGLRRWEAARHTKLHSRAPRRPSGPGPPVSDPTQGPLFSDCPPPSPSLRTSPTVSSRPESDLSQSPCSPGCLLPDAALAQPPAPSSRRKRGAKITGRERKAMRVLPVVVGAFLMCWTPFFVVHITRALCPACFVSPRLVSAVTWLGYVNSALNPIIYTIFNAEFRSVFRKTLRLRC

[32] = target: T4, D4 dopamine receptor (Homo sapiens, UniProt P21917); details: cited from earlier work
T4 sequence (P21917 1-419): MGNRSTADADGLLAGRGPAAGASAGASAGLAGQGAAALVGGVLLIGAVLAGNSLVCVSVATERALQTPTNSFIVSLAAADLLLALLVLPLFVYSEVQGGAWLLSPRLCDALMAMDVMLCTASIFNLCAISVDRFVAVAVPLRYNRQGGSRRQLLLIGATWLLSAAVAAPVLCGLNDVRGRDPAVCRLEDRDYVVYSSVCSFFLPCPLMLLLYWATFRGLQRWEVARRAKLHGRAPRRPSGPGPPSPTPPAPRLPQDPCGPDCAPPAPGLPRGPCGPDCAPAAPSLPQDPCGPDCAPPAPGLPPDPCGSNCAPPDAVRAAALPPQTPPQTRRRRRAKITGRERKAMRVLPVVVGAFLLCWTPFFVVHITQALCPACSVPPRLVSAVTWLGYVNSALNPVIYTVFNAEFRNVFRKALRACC

[33] = set-up: key: 1-high; 2-medium; 3-low probability; details: Table 4A; grading of probability from literature reports; cited from earlier work
[34] = set-up: key: 1-high; 2-medium; 3-low probability; details: Table 4A; grading of probability from literature reports; cited from earlier work; remark: listed apart in the source
[35] = Table 4A; grading of probability from literature reports; cited from earlier work
[36] = set-up: key to Weight Gain: 1-high; 2-medium; 3-low probability; details: cited from earlier work; for Weight Gain: Table 4A, grading of probability from literature reports
[37] = set-up: key: 1-high; 2-medium; 3-low probability; details: Table 4A; grading of probability from literature reports; cited from earlier work; remark: listed apart in the source
[38] = target: 5-HT6 receptor (Homo sapiens, UniProt P50406); details: cited from earlier work
[39] = target: sigma, σ receptor; details: guinea-pig; cited from earlier work
[40] = Table 2, sum of affinity ratios from data of Table 1

Sequence of D1 dopamine receptor (P21728 whole entry): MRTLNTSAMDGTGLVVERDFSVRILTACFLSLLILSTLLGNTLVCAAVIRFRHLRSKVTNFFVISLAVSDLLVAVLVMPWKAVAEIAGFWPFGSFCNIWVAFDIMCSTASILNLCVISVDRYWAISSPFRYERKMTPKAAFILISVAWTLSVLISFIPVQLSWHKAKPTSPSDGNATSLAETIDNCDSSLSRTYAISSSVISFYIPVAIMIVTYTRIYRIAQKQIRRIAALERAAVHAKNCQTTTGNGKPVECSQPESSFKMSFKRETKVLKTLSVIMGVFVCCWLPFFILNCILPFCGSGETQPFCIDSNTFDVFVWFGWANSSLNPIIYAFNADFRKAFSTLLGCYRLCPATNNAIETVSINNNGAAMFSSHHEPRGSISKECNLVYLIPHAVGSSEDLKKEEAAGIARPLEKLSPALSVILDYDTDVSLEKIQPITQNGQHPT
Sequence of 5-HT6 receptor (Rattus norvegicus, UniProt P31388) (P31388 whole entry): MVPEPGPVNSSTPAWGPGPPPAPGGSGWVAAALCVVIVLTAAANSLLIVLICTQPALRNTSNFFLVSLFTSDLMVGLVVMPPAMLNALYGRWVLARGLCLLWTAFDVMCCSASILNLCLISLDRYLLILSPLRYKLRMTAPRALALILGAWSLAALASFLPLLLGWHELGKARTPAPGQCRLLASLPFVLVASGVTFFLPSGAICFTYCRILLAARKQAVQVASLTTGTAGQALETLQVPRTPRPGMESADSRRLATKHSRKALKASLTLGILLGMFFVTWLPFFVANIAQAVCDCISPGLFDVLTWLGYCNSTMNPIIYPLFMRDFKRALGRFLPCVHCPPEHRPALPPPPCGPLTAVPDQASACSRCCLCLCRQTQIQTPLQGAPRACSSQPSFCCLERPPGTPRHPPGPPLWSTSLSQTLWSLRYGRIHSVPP
Sequence of 5-HT7 receptor (P32305 whole entry): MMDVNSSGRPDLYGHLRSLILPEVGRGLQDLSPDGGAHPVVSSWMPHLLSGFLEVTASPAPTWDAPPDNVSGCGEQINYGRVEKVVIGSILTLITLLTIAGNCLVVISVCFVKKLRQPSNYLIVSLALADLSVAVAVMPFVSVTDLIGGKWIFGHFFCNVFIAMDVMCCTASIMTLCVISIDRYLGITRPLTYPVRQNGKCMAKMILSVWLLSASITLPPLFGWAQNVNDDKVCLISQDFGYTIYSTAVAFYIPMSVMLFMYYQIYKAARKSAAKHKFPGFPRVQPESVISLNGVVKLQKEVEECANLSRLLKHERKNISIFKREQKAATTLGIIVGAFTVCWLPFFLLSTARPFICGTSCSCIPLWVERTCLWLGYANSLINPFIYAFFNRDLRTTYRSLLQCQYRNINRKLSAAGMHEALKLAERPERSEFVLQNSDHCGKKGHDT
Sequence of D3 dopamine receptor (P35462 whole entry): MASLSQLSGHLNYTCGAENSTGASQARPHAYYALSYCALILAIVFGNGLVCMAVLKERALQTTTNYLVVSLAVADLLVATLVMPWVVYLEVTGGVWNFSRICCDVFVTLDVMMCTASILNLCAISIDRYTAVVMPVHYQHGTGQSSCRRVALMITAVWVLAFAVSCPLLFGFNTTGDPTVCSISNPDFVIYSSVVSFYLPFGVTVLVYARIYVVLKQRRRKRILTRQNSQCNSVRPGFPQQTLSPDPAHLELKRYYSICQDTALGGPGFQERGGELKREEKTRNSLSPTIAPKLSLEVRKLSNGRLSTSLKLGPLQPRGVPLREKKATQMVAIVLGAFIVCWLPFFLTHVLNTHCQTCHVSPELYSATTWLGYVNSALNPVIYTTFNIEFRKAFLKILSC
Sequence of 5-HT6 receptor (Homo sapiens, UniProt P50406) (P50406 whole entry): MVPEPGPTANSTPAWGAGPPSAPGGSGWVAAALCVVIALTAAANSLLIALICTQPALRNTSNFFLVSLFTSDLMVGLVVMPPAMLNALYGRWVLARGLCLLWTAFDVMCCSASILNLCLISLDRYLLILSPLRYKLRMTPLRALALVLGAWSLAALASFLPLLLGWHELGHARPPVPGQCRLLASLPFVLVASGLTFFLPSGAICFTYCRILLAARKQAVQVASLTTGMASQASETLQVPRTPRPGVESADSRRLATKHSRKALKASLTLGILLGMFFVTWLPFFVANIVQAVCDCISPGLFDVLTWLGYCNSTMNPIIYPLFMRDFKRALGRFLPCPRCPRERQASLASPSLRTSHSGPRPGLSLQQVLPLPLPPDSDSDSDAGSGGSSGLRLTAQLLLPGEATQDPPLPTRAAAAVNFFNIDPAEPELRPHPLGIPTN
Sequence of 5-HT2A receptor (P28223 whole entry): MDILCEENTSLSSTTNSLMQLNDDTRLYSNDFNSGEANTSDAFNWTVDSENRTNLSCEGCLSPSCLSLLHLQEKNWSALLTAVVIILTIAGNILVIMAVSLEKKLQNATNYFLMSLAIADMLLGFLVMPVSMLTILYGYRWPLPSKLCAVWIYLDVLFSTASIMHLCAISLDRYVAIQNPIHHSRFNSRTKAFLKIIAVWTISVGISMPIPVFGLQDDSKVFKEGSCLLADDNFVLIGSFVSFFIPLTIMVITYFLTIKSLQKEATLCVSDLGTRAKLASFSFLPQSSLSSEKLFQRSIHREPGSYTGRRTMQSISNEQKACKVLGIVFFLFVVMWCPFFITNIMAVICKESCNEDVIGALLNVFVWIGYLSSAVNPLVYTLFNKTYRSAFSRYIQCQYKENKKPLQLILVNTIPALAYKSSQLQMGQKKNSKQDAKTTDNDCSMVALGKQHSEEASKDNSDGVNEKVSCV
Sequence of 5-HT3 receptor (P46098 24-478): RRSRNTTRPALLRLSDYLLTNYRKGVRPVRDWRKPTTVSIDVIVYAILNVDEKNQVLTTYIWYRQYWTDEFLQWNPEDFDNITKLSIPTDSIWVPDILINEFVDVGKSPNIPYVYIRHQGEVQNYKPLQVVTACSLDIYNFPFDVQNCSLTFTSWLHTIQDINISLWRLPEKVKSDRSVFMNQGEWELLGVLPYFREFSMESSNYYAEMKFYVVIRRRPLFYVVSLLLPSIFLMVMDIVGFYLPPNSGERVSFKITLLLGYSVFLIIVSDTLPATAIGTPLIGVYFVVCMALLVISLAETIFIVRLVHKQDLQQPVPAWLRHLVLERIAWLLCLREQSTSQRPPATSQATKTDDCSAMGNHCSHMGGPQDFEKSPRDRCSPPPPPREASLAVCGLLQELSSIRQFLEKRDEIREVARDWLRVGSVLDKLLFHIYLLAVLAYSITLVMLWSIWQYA
Sequence of D2 receptor (P14416 whole entry): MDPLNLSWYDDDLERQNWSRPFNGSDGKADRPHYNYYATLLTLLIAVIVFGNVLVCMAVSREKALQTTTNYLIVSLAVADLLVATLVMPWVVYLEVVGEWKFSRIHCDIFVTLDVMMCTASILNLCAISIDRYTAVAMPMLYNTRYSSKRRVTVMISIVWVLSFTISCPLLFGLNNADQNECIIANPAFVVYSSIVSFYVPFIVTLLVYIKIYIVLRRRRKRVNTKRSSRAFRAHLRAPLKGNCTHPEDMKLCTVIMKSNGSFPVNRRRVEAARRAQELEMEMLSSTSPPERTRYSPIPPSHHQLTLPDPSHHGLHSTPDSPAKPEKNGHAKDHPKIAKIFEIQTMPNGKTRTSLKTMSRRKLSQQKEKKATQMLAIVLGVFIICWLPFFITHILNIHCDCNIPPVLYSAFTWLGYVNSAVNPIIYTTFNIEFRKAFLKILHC
Sequence of D2-L (long form of D2 receptor) (P14416 whole entry): as above
Sequence of H1 histamine receptor (P35367 whole entry): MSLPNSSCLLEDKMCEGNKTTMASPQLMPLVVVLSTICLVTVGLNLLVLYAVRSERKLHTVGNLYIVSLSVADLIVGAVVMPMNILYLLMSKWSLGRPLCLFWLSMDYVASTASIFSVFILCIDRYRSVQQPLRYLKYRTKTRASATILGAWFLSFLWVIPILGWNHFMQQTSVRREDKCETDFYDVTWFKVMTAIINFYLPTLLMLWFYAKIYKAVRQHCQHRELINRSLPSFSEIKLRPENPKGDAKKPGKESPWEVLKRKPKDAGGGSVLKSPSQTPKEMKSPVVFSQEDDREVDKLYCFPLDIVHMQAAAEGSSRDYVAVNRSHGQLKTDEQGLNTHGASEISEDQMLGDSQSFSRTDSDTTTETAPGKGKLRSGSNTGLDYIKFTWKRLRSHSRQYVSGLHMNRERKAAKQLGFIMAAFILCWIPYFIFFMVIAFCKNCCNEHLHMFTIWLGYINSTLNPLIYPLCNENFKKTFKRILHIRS
Sequence of 5-HT2C receptor (Rattus norvegicus, UniProt P08909) (P08909 33-460): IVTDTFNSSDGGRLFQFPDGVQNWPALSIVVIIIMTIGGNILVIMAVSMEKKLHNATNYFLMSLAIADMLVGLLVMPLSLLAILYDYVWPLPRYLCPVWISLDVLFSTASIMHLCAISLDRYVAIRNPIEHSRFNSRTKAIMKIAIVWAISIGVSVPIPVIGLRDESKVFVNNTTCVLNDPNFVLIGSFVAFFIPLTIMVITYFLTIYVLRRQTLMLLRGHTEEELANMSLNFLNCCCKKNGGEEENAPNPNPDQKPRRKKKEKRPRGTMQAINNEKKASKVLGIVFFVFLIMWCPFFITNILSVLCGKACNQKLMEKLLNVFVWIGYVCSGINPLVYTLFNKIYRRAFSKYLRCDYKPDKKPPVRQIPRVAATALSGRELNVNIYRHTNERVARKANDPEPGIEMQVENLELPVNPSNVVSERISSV
Sequence of D2-S (short form of D2 receptor) (P14416 1-414 isoform P14416-2): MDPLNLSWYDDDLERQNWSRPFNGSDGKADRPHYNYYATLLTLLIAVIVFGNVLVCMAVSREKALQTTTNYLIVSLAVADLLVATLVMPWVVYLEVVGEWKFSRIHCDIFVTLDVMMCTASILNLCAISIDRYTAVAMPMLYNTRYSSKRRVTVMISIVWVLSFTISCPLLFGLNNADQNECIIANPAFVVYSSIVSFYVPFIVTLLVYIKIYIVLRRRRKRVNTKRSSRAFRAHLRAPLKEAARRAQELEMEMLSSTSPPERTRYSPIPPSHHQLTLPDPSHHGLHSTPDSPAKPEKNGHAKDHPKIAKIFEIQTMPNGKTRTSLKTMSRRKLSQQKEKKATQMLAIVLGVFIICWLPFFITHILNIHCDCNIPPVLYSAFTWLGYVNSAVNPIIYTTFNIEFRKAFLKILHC

Compound: CC(C)n1cc2c3c(cccc31)[C@H]1C[C@@H](C(=O)NC3CCCCC3)CN(C)[C@@H]1C2 [Amesergide, N-cyclohexyl-1-isopropyl-6-methyl-ergoline-8-carboxamide]
- day of maximum values of parent compounds or metabolites (4-hydroxy and desisopropyl species) [1]: 35 days
- day of minimum values of parent compounds or metabolites [1]: 365 days
- effect on 5HT2A/2C mediated elevations of prolactin levels induced by D-fenfluramine [2]: block 5HT2A/2C mediated elevations of prolactin levels

Compound: CCNC(=O)N1CCN(CCCC(c2ccc(F)cc2)c2ccc(F)cc2)CC1 [Amperozide]
- D1 affinity value (−logKi) [3]: 5.1^19
- H1/D2 [4]: 1.08
- 5-HT6 affinity value (−logKi) [5]: 7.2^2
- H1 affinity value (−logKi) [6]: 6.9^19
- 5-HT2C/5-HT2A (2C/2A) [7]: 0.76
- 5-HT3 affinity value (−logKi) [8]: <5^19
- D3 affinity value (−logKi) [9]: 6.6^3
- 5-HT7 affinity value (−logKi) [10]: 6.3^2
- D2-L affinity value (−logKi) [11]: 6.4^3
- D2-S affinity value (−logKi) [12]: 6.5^3
- 5-HT2C/D2 (2C/D2) [13]: 0.92
- α2 affinity value (−logKi) [14]: 5.5^19
- (2C/2A) + (2C/D2) [15, 40]: 1.67
- sigma affinity value (−logKi) [16]: 6.3^19
- mACh affinity value (−logKi) [17]: 6.3^19
- α1 affinity value (−logKi) [18]: 6.2^19
- 5-HT2A/D2 [19]: 1.23
- 5-HT1A affinity value (−logKi) [20]: 5.9^19

Compound: COc1cc(C(C)=O)ccc1OCCCN1CCC(c2noc3cc(F)ccc23)CC1 [Iloperidone]
- D1 affinity value (−logKi) [3]: 6.7^10
- 5-HT6 affinity value (−logKi) [5]: 7.4^10
- α2 affinity value (−logKi) [21]: 7.5^17
- 5-HT1A affinity value (−logKi) [22]: 6.8^18
- D3 affinity value (−logKi) [9]: 8.1^10
- 5-HT7 affinity value (−logKi) [10]: 7.7^10
- (2C/2A) + (2C/D2) [15, 40]: 1.79
- 5-HT2C affinity value (−logKi) [23]: 7.4^10
- sigma affinity value (−logKi) [24]: 7.5^17
- mACh affinity value (−logKi) [25]: <5^17
- α1 affinity value (−logKi) [26]: 9.6^17

Compound: CNCCO[C@]1(c2ccccc2)C[C@H]2CC[C@]1(C)C2(C)C [N-Desmethyl-deramciclane, (1R,2S,4R)-(−)-2-phenyl-2-(methylaminoethoxy)-1,7,7-trimethyl-bicyclo[2.2.1]heptane]
- 5-HT2A Affinity [27]: 7
- Formula I Affinity Ratio ([15]; Table 3, calculated from known 5-HT2C/5-HT2A/D2 affinities): 2.20
- D2 Affinity [28]: 7
- 5-HT2C receptor antagonism compared with deramciclane [29]: even more pronounced 5-HT2C receptor antagonism

Compound: CN1CC2c3ccccc3Oc3ccc(Cl)cc3C2C1 (centres unmarked) [ORG-5222]
- H1/D2 [4]: 1.02
- 5-HT2C/5-HT2A (2C/2A) [7]: 1.02
- 5-HT2C/D2 (2C/D2) [13]: 1.13
- (2C/2A) + (2C/D2) [15, 40]: 2.15
- 5-HT2A/D2 [19]: 1.10

Compound: O=c1[nH]c2ccccc2n1C1CCN(CCCC(c2ccc(F)cc2)c2ccc(F)cc2)CC1 [Pimozide]
- 5-HT2C affinity value (−logKi) [30]: <5^1
- 5-HT6 affinity value (−logKi) [5]: 7.2^2
- D4 affinity value (−logKi) [31]: 7.5^4
- D4 affinity value (−logKi) [32]: 7.4^12

Compound: Cc1nc2n(c(=O)c1CCN1CCC(c3noc4cc(F)ccc34)CC1)CCCC2 [Risperidone]
- Increases prolactin levels [33]: 1
- Improvement negative symptoms [34]: 3
- Improvement cognitive deficits [35]: 2-3
- Weight Gain [36]: 2-3
- Extra-pyramidal side effects [37]: 1

Compound: OCCOCCN1CCN(C2=Nc3ccccc3Sc3ccccc32)CC1 [Seroquel]
- Increases prolactin levels [33]: 3
- Improvement negative symptoms [34]: 3
- Improvement cognitive deficits [35]: 2-3
- Weight Gain [36]: 2
- weight gain (in words) ([36]; text b109, literature reports): do cause weight gain
- Extra-pyramidal side effects [37]: 2

Compound: O=C1NCCN1CCN1CCC(c2cn(-c3ccc(F)cc3)c3ccc(Cl)cc23)CC1 [Sertindole]
- D1 affinity value (−logKi) [3]: 6.89^19
- Increases prolactin levels [33]: 3
- 5-HT1A affinity value (−logKi) [22]: 6.6^6
- Improvement negative symptoms [34]: 2
- α2 affinity value (−logKi) [14]: 6.5^19
- 5-HT6 affinity value (−logKi) [38]: 9.13^19
- (2C/2A) + (2C/D2) ([15]; Table 4B): 1.91
- sigma affinity value (−logKi) [39]: 6.9^6
- Weight Gain [36]: 2-3
- mACh affinity value (−logKi) [17]: <5.6^19
- Extra-pyramidal side effects [37]: 3
- α1 affinity value (−logKi) [18]: 8.7^19
